Source: a melting point compilation (Tetko et al.)

Structure (SMILES)	melting point [°C]
COc1ccc(SCCC(=O)O)cc1	81 to 83
O=C(c1cccnc1)C1CCOCC1	43 to 45
Cc1cc(C(F)(F)F)c2c(C)c(C(=O)O)sc2n1	259 to 261
NNc1ccc(S(=O)(=O)Nc2ccccc2)cc1[N+](=O)[O-]	207 to 209
Cc1cc(C=O)cnc1Cl	47 to 49
Clc1ccc2ccc(Cl)c(Cl)c2n1	123 to 125
NNC(=O)Cc1nc2ccccc2[nH]1	177 to 181
CCOC(=O)/C(C#N)=C\Nc1ccc(F)cc1Cl	168 to 170
O=C1Nc2ccc(Br)cc2C1=NO	268 to 270
N#Cc1ccc(N2CCOC2=O)nc1	186 to 188
CCn1c(C)cs/c1=N\c1ccc(Cl)cc1	190 to 192
CC1Oc2ccc(N)cc2NC1=O (stereo not given)	198 to 200
O=C(O)c1cccc2c1C(=O)c1ccccc1C2=O	293 to 295
Cc1nc2ccccc2nc1Br	102 to 104
CC(C)C(C(=O)O)n1cncn1 (stereo not given)	177 to 179
NC(C(=O)O)c1ccc(Cl)cc1Cl (stereo not given)	215 to 217
Oc1ccc2cccc(O)c2n1	293 to 295
CC(=O)c1cccc(NC(=O)CCl)c1	112 to 114
Nc1ccc(OCc2ccco2)c(Cl)c1	72 to 74
CCOC(=O)C(=O)CC(=O)c1ccc2ccccc2c1	51 to 53
CCOc1ccc(S(=O)(=O)N2CCOCC2)cc1N	165 to 167
O=c1ccn2ncnc2[nH]1	282 to 284
Cc1nc(Cl)cc(-c2ccncc2)n1	111 to 113
CN(C)c1ncnc2cc(C(=O)O)ccc12	323 to 325
CC(C)(C)C(=O)Nc1ccc(C(=O)CCl)cc1	132 to 134

Structure (SMILES)	melting point [°C]
CNS(N)(=O)=O	49 to 51
CN(C)S(=O)(=O)c1cncc(C=CC(=O)O)c1	242 to 244
CC(=O)Nc1cc(N)ccc1F	134 to 136
COc1cc([N+](=O)[O-])ccc1NC(=O)C(C)Cl (stereo not given)	85 to 87
N#CCN1CCN(Cc2ccccc2)CC1	49 to 51
CC(=CC(=O)O)c1ccccc1OC(F)F	69 to 71
ClCc1noc(C2(c3ccccc3)CCOCC2)n1	74 to 76
CC(C)(C)OC(=O)NCC1CCCCN1 (stereo not given)	93 to 95
Nc1ccc2[nH]c(-c3ccco3)nc2c1	230 to 232
CN(C)c1ccc(N)cc1Cl	72 to 73
COc1ccc(-c2nnc(S)n2N)c(OC)c1	200 to 202
O=S(=O)(Cl)CCNS(=O)(=O)c1ccccc1	96 to 98
OCc1noc(-c2cccc(Cl)c2)n1	103 to 105
O=CC(C=O)SCc1ccccc1	128 to 130
COC(=O)c1cccc(OCc2ncon2)c1	102 to 104
Nc1cccc(CS(N)(=O)=O)c1	144 to 146
O/N=C/c1c(Cl)nc(Cl)n1-c1ccccc1	179 to 181
O=C(CN1C(=O)CCC1=O)c1ccccc1	144 to 146
Nc1cc(-c2ccc([N+](=O)[O-])cc2)no1	195 to 197
CCCn1c(C)cc(C=O)c1C	52 to 54
NNc1ncnc2c1oc1ccccc12	232 to 234
Clc1ccc(-n2cccn2)cn1	107 to 109
Cc1ccc(S(=O)(=O)CCC(=O)O)cc1	108 to 110
CCOC(=O)c1cn2c(n1)NCCC2	171 to 173
Clc1ccc(-n2cccn2)cc1Cl	59 to 61

Structure (SMILES)	melting point [°C]
O=C(O)C1CC1c1c(Cl)cccc1Cl (stereo not given)	144 to 146
O=Cc1cc(Br)c2c(c1)OCCO2	99 to 101
CN(c1ccccc1)S(=O)(=O)c1ccccc1C(=O)O	136 to 138
Cc1cc(C(=O)O)cc(C)c1OCC(=O)N1CCCCC1	175 to 177
Cn1cc(S(=O)(=O)N2CCOCC2)cc1C(=O)O	245 to 247
NC(=O)c1cnc(N)c(Cl)c1	217 to 219
NC(=NO)c1ccc(COc2ccccc2F)cc1	135 to 137
N#CCC1=NC(=O)CS1	183 to 185
O=C1NCCc2c1ccc(Cl)c2Cl	200 to 202
CC1CCN(CC(C)C(=O)NN)CC1 (stereo not given)	113 to 115
Nc1cc(Cl)c([N+](=O)[O-])cc1OCc1ccccc1	135 to 137
Cc1ccc(-n2nc(Br)cc2C(=O)O)cc1	219 to 221
Sc1nnc(NCCCN2CCOCC2)s1	145 to 147
Nc1cnc(-c2ccccc2)nc1	81 to 83
Cc1nn(-c2ccc(Cl)cc2Cl)c(C)c1CC(=O)O	186 to 188
CCOC(=O)C(O)c1nccn1Cc1ccccc1 (stereo not given)	134 to 136
CC(C)(C)c1ccc(CCCCC(=O)O)cc1	71 to 73
Cc1ccc2[nH]c3c(c2c1)CCCC3=O	185 to 187
NC(=O)Nc1cccc2ccccc12	284 to 286
Nc1c(NCC2CCCO2)c(=O)[nH]c(=O)n1Cc1ccccc1 (stereo not given)	221 to 223
O=C(O)c1cc(/C=C/c2ccc(C(F)(F)F)cc2)nc2ccc(Br)cc12	316 to 318
O=C(Nc1cnccn1)c1ccc(I)cc1	196 to 198
Cc1csc(-c2cccc(C(=O)O)c2)n1	192 to 194
Cc1c(F)ccc2c1NC(=O)C2=O	139 to 141
COc1ccc(CC(=O)O)cc1S(=O)(=O)Cl	166 to 168

Structure (SMILES)	melting point [°C]
CC1(c2ccc(C(=O)O)cc2)NC(=O)NC1=O (stereo not given)	279 to 281
COc1cccc(Cn2c(N)cc(=O)[nH]c2=O)c1	292 to 294
Nc1ccccc1-c1cc(F)c(F)c(F)c1	64 to 66
CC(O)C1CCNCC1 (stereo not given)	68 to 70
Cn1c(CC(=O)NN)nc2ccccc21	206 to 208
O=C(O)CCNC(=O)OCc1ccccc1	104 to 108
CC1Cc2ccccc2N1Cc1ccoc1C(=O)O (stereo not given)	170 to 172
Sc1nnc(C2CCCCC2)o1	81 to 83
O=C(O)c1cc2cc(Cl)c(Cl)cc2[nH]1	321 to 323
O=C(O)c1csc(I)c1	136 to 138
NC(c1nnn[nH]1)C1CC1 (stereo not given)	233 to 235
Nc1nc(-c2ccc3c(c2)CCC(=O)N3)cs1	248 to 250
Sc1nnc(NCc2ccco2)s1	124 to 126
N#Cc1ccccc1-c1ccc(CN)cc1	53 to 55
O=C(O)c1nc[nH]n1	132 to 136
O=C(O)CCCOc1ccccc1Br	87 to 89
CCc1nnc(-c2ccc(N)cc2)o1	137 to 139
O=C(O)c1cc2c(s1)-c1cc(F)ccc1SC2	279 to 281
CS(=O)(=O)Nc1ccc(C(=O)O)cc1	198 to 200
CCCS(=O)(=O)c1ccc(C(=O)O)cc1	193 to 195
CCC(C(=O)O)N1CCCC1=O (stereo not given)	156 to 158
O=C(O)c1cc2c([nH]c1=O)CCC2	273 to 275
NC(=O)c1ccc(Oc2ccc(C(=O)O)cc2)cc1	289 to 291
O=C(O)C1CC1C1CCCCC1 (stereo not given)	52 to 54
Clc1nc(-c2ccccn2)nc2sc(-c3ccccc3)cc12	186 to 188

Structure (SMILES)	melting point [°C]
CC(O)CN1C(=O)C=CC1=O (stereo not given)	74 to 76
O=C1Nc2c(Br)cc(Cl)cc2C1=O	245 to 247
Cc1nc(CCl)nc2ccccc12	60 to 62
CC1CCc2c(sc3nc(S)n(Cc4ccco4)c(=O)c23)C1 (stereo not given)	275 to 277
Cc1ccc(OCC(=O)O)c(Br)c1	130 to 132
NC(=O)N1CCCC1C(=O)O (stereo not given)	205 to 207
Nc1nc(-c2cccc(-n3cnnn3)c2)cs1	184 to 186
CCCNc1ccc(S(N)(=O)=O)cc1N	104 to 106
Cc1cc(=O)[nH]c(-c2cccc(N)c2)n1	212 to 214
O=C(O)c1ccc(-c2ccc(Cl)c(Cl)c2)s1	253 to 255
O=S1(=O)CCC(S(=O)(=O)Cl)C1 (stereo not given)	114 to 116
O=Cc1cc2c(cc1[N+](=O)[O-])OCCO2	169 to 171
COC(=O)CNc1ncc(C)cc1[N+](=O)[O-]	107 to 109
COc1ccc2cc(C(C)C#N)ccc2c1 (stereo not given)	70 to 72
Cc1cc(OCc2ccc(C(=O)NN)cc2)ccc1Cl	78 to 80
Nc1sccc1C(=O)NC1CC1	144 to 146
COc1cccc(Cn2ccc3ccc(N)cc32)c1	59 to 61
CCCc1cc(Cl)n2ncnc2n1	67 to 69
N=c1nc[nH]c2c1ncn2CCC(N)=O	255 to 257
O=C(O)/C=C/c1cc(Cl)c2c(c1)OCO2	259 to 261
Nc1n[nH]c(=O)[nH]c1=O	334 to 336
Cc1cc(F)ccc1S(=O)(=O)Nc1ccc(C(=O)O)cc1	199 to 201
Fc1ccc(NC2CCN(c3ccncc3)CC2)cc1	151 to 153
C=CCNS(=O)(=O)c1cccc(C(=O)O)c1	180 to 182
CCCNC(=O)CN(C)C(=O)CCl	212 to 217

Structure (SMILES)	melting point [°C]
NS(=O)(=O)N1CCCNCC1	118 to 120
CC1(C(=O)O)CCOCC1	62 to 64
CC(=CC(=O)O)c1ccccc1Cl	75 to 77
CCOc1cc(Cl)ccc1C(=O)O	119 to 121
CS(=O)(=O)c1ccc(OCCBr)cc1	100 to 102
CNc1snc(C)c1C(=O)O	151 to 153
COc1cc(C(C)=O)ccc1OCCCC(=O)O	163 to 165
Cc1ccc(NC(=O)NCC2CCCNC2)cc1 (stereo not given)	161 to 163
Cc1nnc(-c2cccc(CN)c2)[nH]1	199 to 201
Cc1cc(C(=O)CCC(=O)O)c(C)s1	105 to 108
CC(=CC(=O)O)c1ccc(F)cc1F	157 to 159
CC(C)(C)OC(=O)N1CCC(OC(=O)c2ccc(N)cc2)CC1	147 to 149
O=C(CCl)c1c(-c2ccccc2)[nH]c2ccccc12	140 to 142
COc1nc(N2CCNCC2)ncc1Br	89 to 91
CC(C)CC(N)C(=O)Nc1nccs1 (stereo not given)	99 to 101
NC(=NO)c1ccc(COc2ccccc2)cc1	143 to 145
Cc1ccccc1-n1c(S)nc(O)cc1=O	206 to 208
O=C(CCl)NCCC1=CCCCC1	60 to 62
CNC(=O)COc1ccc(C(C)O)cc1 (stereo not given)	84 to 86
Nc1nc(-c2ccccc2OC(F)F)cs1	73 to 75
